Test results reported in PubChem BioAssay AID449762 (Southern Research Specialized Biocontainment Screening …, 2010).
Results filed as inconclusive are left out.

Tested on: M. tuberculosis H37Rv growth inhibition, 7H9 media
Test: M. tuberculosis growth inhibition, HTS (AID 449762);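 also: bacterial growth assessed after seven days of incubation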
Settings: for IC90: measured here: IC90 growth inhibition

| SMILES | IC50 [µM] | IC90 [µM] |
| --- | --- | --- |
| COc1ccc(/C=N/Nc2cc(N3CCCC3)nc(N3CCCC3)n2)cc1 | 16.3 | 25 |
| COc1ccc(NC(=O)CN(C)CC(=O)Nc2sc3c(c2C(N)=O)CCC3)cc1 | 49.9 | 98 |
| O=C1c2ccccc2S(=O)(=O)c2cc(C(=O)N3CCN(c4c(Cl)cncc4Cl)CC3)ccc21 | 32 | 46.5 |
| Fc1ccc(N/N=C2/CC(c3ccccc3)Oc3ccccc32)c(F)c1 (stereo not drawn) |  | > 100 |
| c1nc2n(n1)C1=C(CCCC1)C1(CCCCC1)N2 | 10.2 | 30 |
| CC(Oc1ccc(F)cc1)C(=O)Nc1sc2c(c1C(=O)NCc1cccnc1)CCCC2 (stereo not drawn) | 45 | 52.5 |
| Fc1nc(F)c(F)c(NCCCNc2c(F)c(F)nc(F)c2F)c1F | 37.7 | > 100 |
| CCNc1nc(Nc2ccc(C)c(Cl)c2)c2cnn(C)c2n1 | 43.3 | > 100 |
| CCC(C)(C)c1ccc(OCCCC[n+]2ccc(C)cc2)c(C(C)(C)CC)c1 | 10.2 | 15 |
| CN(c1ccccc1)c1ccc(/C=C/[N+](=O)[O-])cc1 | 8.97 | 16.9 |
| C/C(=N\Nc1nc2c(s1)CCCC2)c1ccccc1 | 18.6 | 34.4 |
| CC1=NN(C(N)=S)C(=O)C1N=Nc1ccc(C)c(Br)c1 (stereo not drawn) | 11.5 | 19.1 |
| CCc1nnc(N/N=C/c2cc(C)c(C)cc2C)n1N | 7.24 | 16 |
| Cc1cccc(OCc2n(CC(=O)OC3CC(C)CCC3C(C)C)c3ccccc3[n+]2C)c1 (stereo not drawn) | 7.43 | 9.6 |
| O=C1Nc2ccccc2/C1=N\N=C\C1=C(N2CCOCC2)C(=C\c2ccccc2)/CC1 | 33.4 | 59.8 |
| O=C(CCc1nnc(CCCc2ccccc2)o1)NCCCC1CCCC1 | 10.5 | 23.1 |
| CC1CCCC(C)N1C(=O)COC(=O)c1cc(-c2cccs2)nn1-c1ccccc1 (stereo not drawn) | 24.5 | 55.6 |
| O=C(CSc1nnc(-c2cccs2)o1)NCC1CN(Cc2ccccc2)CCO1 (stereo not drawn) | 5.22 | 15.2 |
| CCOC(=O)CSc1ncc(OC)c(Sc2ccc(OC)cc2)n1 | 7.53 | 73.4 |
| O=C(C[n+]1cc(-c2ccc(Cl)cc2)n2c1CCC2)Nc1nc(-c2ccccc2)cs1 | 17 | 25.1 |
| CC(C)(C)c1ccc(-c2nc3[nH]c(=O)cc(NC(=O)c4ccco4)n3n2)cc1 | 74.4 | > 100 |
| C/C(CCc1ccc2c(c1)OCO2)=N\NC(=S)NC(C)C | 35.7 | 48.4 |
| CNC(C)C#Cc1ccc2oc3cc(C)c(C)cc3c(=O)c2c1 (stereo not drawn) | 4.55 | 17.9 |

| SMILES | IC50 [µM] | IC90 [µM] |
| --- | --- | --- |
| Cc1ccccc1N1CCN(C(=O)c2ccc(Oc3ccc(C(F)(F)F)cn3)cc2)CC1 | 24.4 | 60.5 |
| COc1nn(-c2ccccc2)c(=O)c(Cl)c1Cl | 5.52 | 9.06 |
| CCCCNC(=S)Nc1ccc2cn[nH]c2c1 | 11.2 | 21.3 |
| Cc1ccc(S(=O)(=O)N(C)c2ccc(OCC(=O)OCc3ccc(C#N)cc3)cc2)cc1 | 8.71 | 13.8 |
| CCCCCCCCn1sccc1=O | 1.29 | 2.12 |
| NC1=NC[C@H](CC2CCCCC2)N1CCc1cc(C(F)(F)F)cc(C(F)(F)F)c1 | 8.9 | 11.6 |
| Cc1cc2c(ccc3c2no[n+]3[O-])nn1 | 11.6 | 14.6 |
| O=C1NN(c2ccc(Br)cc2)C(=O)/C1=C\c1ccc(O)cc1O | 88.2 | > 100 |
| C#CCn1c(=NC(=O)c2cc(Cl)sc2Cl)sc2cc(S(N)(=O)=O)ccc21 | 3.37 | > 100 |
| COc1ccc(/C=N/Nc2cc(C)nc3ccc(OC)cc23)c(OC)c1 | 9.39 | 11.9 |
| CN(C)C/C=C/C(=O)Nc1cccc(-c2c[nH]c3ncnc(Oc4ccc(NC(=O)CC(=O)Nc5ccc(F)cc5)cc4F)c23)c1 | 7.38 | 14.7 |
| CN1/C(=C\C(=O)C[n+]2ccc(C(=O)c3ccccc3)cc2)C(C)(C)c2ccccc21 | 7.85 | 15.3 |
| Cc1ccc(NN=C2c3ccccc3-c3ccccc32)cc1 | 45.5 | > 100 |
| CCOC(=O)c1nn(-c2ccc(C)cc2)c2nc(Nc3ccccc3)cc(=O)n12 | 4.1 | 12.7 |
| O=C(NCCC1=CCCCC1)NC12CC3CC(CC(C3)C1)C2 | < 0.2 | 0.34 |
| Cn1nnnc1Sc1ncnc2scc(-c3cc4ccccc4o3)c12 | 0.78 | 7 |
| COc1ccccc1NC(=O)C(C)OC(=O)/C=C/c1ccc2ccccc2n1 (stereo not drawn) | 3.82 | 11.4 |
| O=c1oc2ccccc2c(O)c1/C=C1\C=Nc2ccccc21 | 16.6 | 39.8 |
| COc1ccc(Nc2nc(N3CCCCC3)nc3ccccc23)c(OC)c1 | 19.1 | 26.5 |
| CCOc1ccc(C(=O)CCN2CCCCCC2)cc1 | 11.9 | 17.4 |
| CC1CCCC/C1=N\NC(=S)NCCc1ccccc1 (stereo not drawn) | 21.9 | 24.6 |
| COc1ccc(COC(=O)CCNC(=O)c2ccc(Cl)cc2)cc1 | 58.7 | > 100 |
| COc1ccc(C(=O)C[n+]2ccc3c(c2)nc(-c2cc(OC)c(OC)cc2OC)n3C)cc1 | 10.5 | 13.4 |

| SMILES | IC50 [µM] | IC90 [µM] |
| --- | --- | --- |
| COc1cc(NC(=O)c2cnc(N)s2)cc(C(=O)Nc2cccc(C(F)(F)F)c2)c1 | 52 | 78.8 |
| CCOC(=O)COc1ccc2c(c1)C(=O)CC(C)(c1cccnc1)O2 (stereo not drawn) | 9.2 | 18.4 |
| CC(C)(C)NC(=O)COC(=O)c1cc(Br)ccc1Cl | 27.8 | 65.1 |
| O=C(c1ccc(Br)cc1)C(CN1CCOCC1)c1ccccc1 (stereo not drawn) | 4.73 | 9.41 |
| OC(CN1CCCCC1)Cn1c2ccc(Cl)cc2c2cc(Cl)ccc21 (stereo not drawn) | 8.94 | 11.6 |
| CCCCC(=O)OCC(=O)N1N=C(c2c[nH]c3ccccc23)C(O)C1c1ccc(OC)cc1 (stereo not drawn) | 10.6 | 15.9 |
| CCOC(=O)N1CCc2c(sc(NC(=O)c3ccc(Cl)s3)c2C(N)=O)C1 | 6.17 | 20.5 |
| CCOC(=O)c1ccc(Oc2nc(NC(C)(C)C)nc(N(C)C)n2)cc1 | 21.3 | 82.2 |
| Cn1c(N)c(C(=O)COC(=O)c2ccc([N+](=O)[O-])o2)c(=O)n(C)c1=O | 2.81 | 4.54 |
| CN(/N=C/c1cc(Br)cc(Br)c1O)c1cccc(C(F)(F)F)n1 | 3.93 | 7.43 |
| Cc1ccc(-c2noc(=O)n2CC(=O)c2ccc(Cl)cc2)cc1 | 44.3 | > 100 |
| CNC(=S)Nc1ccc(N2CCN(c3ccc(C(F)(F)F)cn3)CC2)nc1 | 9.93 | > 100 |
| COc1ccccc1/C(C)=N/NC(=S)NCc1ccccc1 | 23.3 | 26.6 |
| Cc1cc(Nc2ccccc2)c2c([N+](=O)[O-])ccc(C)c2n1 | 94.4 | > 100 |
| O=[N+]([O-])c1cc(C=Nc2ccc3ccccc3c2)ccc1Br | 33.5 | 45.6 |
| CC(C)c1ccc2[nH]c(O)c(N=NC(=O)c3ccc(CSc4nncn4C)cc3)c2c1 |  | > 100 |
| Cc1cc(C(=O)COC(=O)C2=COCCO2)c(C)n1-c1cccc(F)c1 | 4.83 | > 100 |
| OC(CNCC(c1ccc(Cl)cc1Cl)c1c[nH]c2ccccc12)c1ccccc1 (stereo not drawn) | 16.9 | 23.4 |
| COC(=O)c1ccc(NC(=S)NC(=O)C2CCC2)cc1 | 41.9 | 55.9 |
| COc1cc(/C=C(\C#N)c2nc3c(s2)CC(C)CC3)ccc1O (stereo not drawn) | 31.5 | 63.5 |
| Clc1ccc(CNc2nc(CN3CCOCC3)nc3scc(-c4ccccc4)c23)cc1 | 17.3 | 43.6 |
| N#CC(C(=O)NCc1ccco1)c1nc2ccccc2nc1N1CCOCC1 (stereo not drawn) | 43 | 45.2 |
| C=C(C)C(=O)OCC(O)COc1ccc(C(C)(C)c2ccc(OCC(O)COC(=O)C(=C)C)cc2)cc1 (stereo not drawn) | 37.8 | 48.5 |

| SMILES | IC50 [µM] | IC90 [µM] |
| --- | --- | --- |
| O=C(CCl)NCc1cc(-c2ccc(Cl)cc2)no1 | < 0.2 | 1.33 |
| CCn1cc(Br)c(C(=O)Nc2ccc(C(=O)OC(C)C)cc2)n1 | 35.5 | 57.8 |
| Cc1ccc(OC(=O)CCN2C(=O)c3ccccc3C2=O)cc1C | 28.6 | > 100 |
| CCOc1ccc(N2CC(=O)Nc3ccccc3NCC2=O)cc1 | 52.7 | 78.2 |
| COc1ccc(C(=O)Cn2nc(CNc3ccc(Br)cc3)[n+]3c2CCCCC3)cc1 | 9.77 | 13.7 |
| Cc1ccc(-n2nc3c(N4CCC(C(=O)NCc5ccccc5C)CC4)nnc(C)c3c2C)cc1 | 46.9 | 69 |
| O=C(N/N=C\c1ccc[nH]1)c1cncc(Br)c1 | 25.2 | 49 |
| CCNCC(=O)N1c2ccccc2CCc2ccc(NC(=O)OC(C)C)cc21 | 55.9 | 71.3 |
| CCOC(=O)N/N=C(/C)c1ccc([N+](=O)[O-])o1 | 3.86 | 11.8 |
| CC1=C(C)C(=O)C(CCCCC#CCCCC#CCO)=C(C)C1=O | 10.9 | 18.7 |
| CC(NC(=O)CCl)c1ccc(Cl)c(Cl)c1 (stereo not drawn) | 1.17 | 2.91 |
| CCOC(=O)c1cc2cc3ccccc3cc2oc1=O | 34 | > 100 |
| CCCCN(CCCC)CCC(O)c1cc2c(Cl)cc(Cl)cc2c2cc(C(F)(F)F)ccc12 (stereo not drawn) | 16.6 | 25.7 |
| COc1ccc(-c2cc3ccccc3oc2=O)cc1NC(=O)c1ccc([N+](=O)[O-])o1 | 0.37 | > 100 |
| CC(NCCCOc1cccc2ccccc12)c1ccccc1 (stereo not drawn) | 22.6 | 31.3 |
| CN1C(=O)/C(=C/c2cccc(Cl)c2)Sc2ccc(C(=O)N3CCCC3)cc21 | 17.1 | 31 |
| CCOC(=O)c1cc(-c2csc(Nc3c(C)cc(C)cc3C)n2)on1 | 1.07 | 1.76 |
| Oc1ccc(N=Nc2n[nH]c(-c3ccc(Cl)cc3)n2)cc1 | 11.8 | 59 |
| CCOC(=O)c1ccc(NC(=O)Cn2ncc(Cl)c(Cl)c2=O)cc1 | < 0.2 | 0.44 |
| Cc1oc2c(c1C(=O)NCc1cccnc1)C(=O)c1ccccc1C2=O | 9.78 | 13.9 |
| CCOC(=O)CNC(=O)c1sc2ncnc(N3CCc4ccccc4C3)c2c1C | 53.2 | > 100 |
